The source made the active and inactive calls. No cut-off for these calls is given here.

30 molecules from ChEMBL document CHEMBL3399932, “Synthesis of new N-benzylpiperidine derivatives as cholinesterase inhibitors with β-amyloid anti-aggregation properties and beneficial effects on memory in vivo” (Bioorg Med Chem, 2015) can be followed below.

Data set [1] deals with Acetylcholinesterase (Electrophorus electricus, UniProt O42275).
Data set [2] has as its target Cholinesterase (Equus caballus, UniProt P81908).
Data set [3] deals with Acetylcholinesterase (Electrophorus electricus) (UniProt O42275). The experiment in a line: Inhibition of electric eel AChE using acetylthiocholine iodide as substrate preincubated at 10^-4 mol/L for 5 mins by Ellman method. For orientation: Ellman's reagent forms a yellow product with free thiols.
Chain of Acetylcholinesterase (Electrophorus electricus) (O42275 24-633 limits assumed): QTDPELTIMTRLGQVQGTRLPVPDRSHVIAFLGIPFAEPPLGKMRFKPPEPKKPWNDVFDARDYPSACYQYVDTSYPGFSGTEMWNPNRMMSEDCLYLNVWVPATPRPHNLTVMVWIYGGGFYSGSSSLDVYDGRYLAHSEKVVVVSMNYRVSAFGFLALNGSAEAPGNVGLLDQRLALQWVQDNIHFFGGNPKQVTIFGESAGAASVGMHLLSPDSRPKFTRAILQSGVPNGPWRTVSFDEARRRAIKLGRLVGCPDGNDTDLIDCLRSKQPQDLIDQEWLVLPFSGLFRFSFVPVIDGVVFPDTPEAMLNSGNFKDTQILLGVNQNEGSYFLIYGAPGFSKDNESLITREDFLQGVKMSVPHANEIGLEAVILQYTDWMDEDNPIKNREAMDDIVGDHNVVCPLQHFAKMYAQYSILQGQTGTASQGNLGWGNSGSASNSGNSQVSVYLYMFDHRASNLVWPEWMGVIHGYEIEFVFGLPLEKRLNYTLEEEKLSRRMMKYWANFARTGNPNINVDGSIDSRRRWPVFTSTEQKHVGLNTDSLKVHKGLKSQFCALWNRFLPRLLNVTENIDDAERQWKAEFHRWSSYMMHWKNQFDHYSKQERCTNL
Data set [4] has as its system Mus musculus. The experiment in a line: Effect on scopolamine-induced cognitive dysfunction in albino Swiss CD-1 mouse assessed as reduction in step-through latency time at 5 to 30 mg/kg, ip administered 1 hr before the acquisition trial by passive avoidance test. Format: functional, organism-based.
Data set [5] addresses Amyloid-beta precursor protein (Homo sapiens) (UniProt P05067). The data set is described as follows: Inhibition of self-induced beta-amyloid (1 to 42) (unknown origin) aggregation by thioflavin-T assay.
For data set [6], the system named is Mus musculus. The experiment in a line: Effect on scopolamine-induced cognitive dysfunction in albino Swiss CD-1 mouse assessed as reduction in step-through latency time during retention trial at 5 to 30 mg/kg, ip administered 1 hr before the acquisition trial measured 24 hrs after acquisition trial over 180 seconds by passive avoidance test. In kind it is functional, organism-based.

For data set [7], the system named is Mus musculus. The experiment in a line: Sedative activity in albino Swiss CD-1 mouse assessed as decrease in spontaneous locomotor activity at 30 mg/kg, ip administered 1 hr before test measured at 18 to 30 mins of test. To be noted: in vivo. In kind it is ADME, organism-based. Also noted: dose 30 mg/kg, route intraperitoneal.
The test system of data set [8] is Mus musculus. The experiment in a line: Sedative activity in albino Swiss CD-1 mouse assessed as decrease in spontaneous locomotor activity at 30 mg/kg, ip administered 1 hr before test measured up to 6 mins of test. Format: ADME, organism-based. Also noted: dose 30 mg/kg, route intraperitoneal. To be noted: in vivo.
For data set [9], the system named is Mus musculus. The experiment in a line: Toxicity in albino Swiss CD-1 mouse assessed as decrease in impairment of motor coordination at 6 to 18 rpm at 30 to 100 mg/kg, ip administered 1 hr before test by rotarod test. In kind it is organism-based. Also noted: dose 30-100 mg/kg, route intraperitoneal. To be noted: in vivo.
Data set [10] has as its system Mus musculus. The experiment in a line: Toxicity in albino Swiss CD-1 mouse assessed as decrease in impairment of motor coordination at 24 rpm at 100 mg/kg, ip administered 1 hr before test by rotarod test. In kind it is organism-based. To be noted: in vivo. Also noted: dose 100 mg/kg, route intraperitoneal. (In the rotarod test animals must keep their balance on a rotating rod.)

In data set [11] the test system is Mus musculus. The data set is described as follows: Toxicity in albino Swiss CD-1 mouse assessed as decrease in impairment of motor coordination at 24 rpm at 30 mg/kg, ip administered 1 hr before test by rotarod test. Format: organism-based. Also noted: dose 30 mg/kg, route intraperitoneal; scale not given: the % may be the effect or the level left. To be noted: in vivo.

The target in data set [12] is Cholinesterase (Equus caballus) (UniProt P81908). The experiment in a line: Inhibition of horse serum BChE using butyrylthiocholine iodide as substrate preincubated at 0.5 to 1 uM for 5 mins by Lineweaver-Burk plot method.
Chain of Cholinesterase (Equus caballus) (P81908 whole entry): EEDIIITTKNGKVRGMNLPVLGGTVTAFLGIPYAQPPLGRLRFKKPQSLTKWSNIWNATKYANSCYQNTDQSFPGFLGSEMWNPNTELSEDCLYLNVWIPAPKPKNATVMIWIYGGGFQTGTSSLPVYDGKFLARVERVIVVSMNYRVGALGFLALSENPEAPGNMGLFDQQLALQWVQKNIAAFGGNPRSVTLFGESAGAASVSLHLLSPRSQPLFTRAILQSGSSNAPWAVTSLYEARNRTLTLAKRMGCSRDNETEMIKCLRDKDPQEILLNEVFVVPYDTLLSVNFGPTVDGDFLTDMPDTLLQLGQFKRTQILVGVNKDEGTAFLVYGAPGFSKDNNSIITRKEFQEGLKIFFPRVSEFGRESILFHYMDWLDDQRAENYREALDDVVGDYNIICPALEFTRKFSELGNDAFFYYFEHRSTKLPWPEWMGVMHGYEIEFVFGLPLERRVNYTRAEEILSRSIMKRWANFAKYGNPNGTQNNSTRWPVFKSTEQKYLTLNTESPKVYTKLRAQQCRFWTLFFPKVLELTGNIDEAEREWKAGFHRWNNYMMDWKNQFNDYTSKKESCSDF
Data set [13] concerns the target Acetylcholinesterase (Electrophorus electricus) (UniProt O42275). The conditions noted are these: 5 to 10 uM.
The conditions of data set [14]: PAMPA, 2 h. (In PAMPA a lipid-coated filter parts donor from acceptor wells.)
Data set [15] addresses Cholinesterase (Equus caballus) (UniProt P81908). The experiment in a line: Inhibition of horse serum BChE using butyrylthiocholine iodide as substrate preincubated at 10^-4 mol/L for 5 mins by Ellman method.

Chain of Acetylcholinesterase (O42275 whole entry): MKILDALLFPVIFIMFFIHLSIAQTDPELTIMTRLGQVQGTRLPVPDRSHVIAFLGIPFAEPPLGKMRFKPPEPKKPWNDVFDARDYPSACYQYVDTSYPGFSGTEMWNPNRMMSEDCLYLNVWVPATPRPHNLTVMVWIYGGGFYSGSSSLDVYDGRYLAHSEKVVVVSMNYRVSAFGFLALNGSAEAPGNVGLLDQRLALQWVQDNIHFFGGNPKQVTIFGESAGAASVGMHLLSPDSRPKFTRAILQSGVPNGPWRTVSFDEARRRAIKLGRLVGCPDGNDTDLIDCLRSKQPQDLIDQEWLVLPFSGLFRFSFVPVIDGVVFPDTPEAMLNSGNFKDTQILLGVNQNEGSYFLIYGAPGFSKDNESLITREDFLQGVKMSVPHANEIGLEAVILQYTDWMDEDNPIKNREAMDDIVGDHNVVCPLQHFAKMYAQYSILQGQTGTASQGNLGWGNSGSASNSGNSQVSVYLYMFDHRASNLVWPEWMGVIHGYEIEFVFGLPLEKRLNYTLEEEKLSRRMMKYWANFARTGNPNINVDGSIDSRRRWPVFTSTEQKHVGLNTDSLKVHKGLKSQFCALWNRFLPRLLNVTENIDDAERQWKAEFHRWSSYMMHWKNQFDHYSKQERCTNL
Chain of Cholinesterase (P81908 whole entry): as the sequence (P81908 whole entry) above
Chain of Amyloid-beta precursor protein (Homo sapiens) (P05067 whole entry): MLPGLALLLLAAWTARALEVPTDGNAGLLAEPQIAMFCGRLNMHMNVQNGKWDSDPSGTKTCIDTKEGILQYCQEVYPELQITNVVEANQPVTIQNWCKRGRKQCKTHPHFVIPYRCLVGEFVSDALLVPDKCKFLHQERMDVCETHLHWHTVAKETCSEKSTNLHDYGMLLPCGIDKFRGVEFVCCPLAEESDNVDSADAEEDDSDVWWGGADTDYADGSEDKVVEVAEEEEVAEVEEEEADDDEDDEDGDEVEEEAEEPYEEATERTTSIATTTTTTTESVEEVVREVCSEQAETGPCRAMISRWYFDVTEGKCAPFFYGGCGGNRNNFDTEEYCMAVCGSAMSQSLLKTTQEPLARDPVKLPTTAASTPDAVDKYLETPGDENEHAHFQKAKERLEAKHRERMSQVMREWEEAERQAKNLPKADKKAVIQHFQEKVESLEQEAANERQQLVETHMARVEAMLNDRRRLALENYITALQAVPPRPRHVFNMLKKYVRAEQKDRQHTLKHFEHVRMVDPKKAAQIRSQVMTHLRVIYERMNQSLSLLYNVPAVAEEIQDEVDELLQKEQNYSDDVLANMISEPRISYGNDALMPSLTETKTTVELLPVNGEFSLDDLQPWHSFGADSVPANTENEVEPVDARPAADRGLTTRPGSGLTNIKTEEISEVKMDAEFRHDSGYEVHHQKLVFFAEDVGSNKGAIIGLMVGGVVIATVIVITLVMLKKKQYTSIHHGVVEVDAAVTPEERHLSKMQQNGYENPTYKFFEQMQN

In the case of `O=C1c2ccccc2C(=O)N1CCCCCCNC1CCN(Cc2cccc(Cl)c2)CC1`, the IC50 (commonly the point on the concentration scale where inhibition reaches its midpoint) worked out at 54.4 µM in [1] and 2730 nM in data set [2].

On to `O=C1c2ccccc2C(=O)N1CCCCCCCCNC1CCN(Cc2cccc(Cl)c2)CC1`, for which the inhibition (as a rule, how much of the control response was suppressed) in data set [3] was less than 60%; in [5] it was “Dose-dependent effect”. In addition, the result in data set [4] and in data set [6] was Active. Further, the Activity result in data set [7] is recorded as “Toxic”; in [8], “Non-toxic”; in [9] it was “Non-toxic”; in data set [10], “Toxic”; in data set [11], 38%. In data set [2], this molecule registered an IC50 of 720 nM.

Take `O=C1c2ccccc2C(=O)N1CCCCCCCCNC1CCN(Cc2ccc(O)cc2)CC1`: the IC50 in data set [1] was 23.5 µM; in data set [2], 810 nM.

As for `O=C1c2ccccc2C(=O)N1CCCNC1CCN(Cc2ccc(O)cc2)CC1`, the inhibition result in data set [12] and in data set [13] was “Active” throughout. For the same molecule, the results for the IC50 in [1] and in data set [2] were 4.52 µM and 9370 nM, respectively.

Take `Clc1cccc(CN2CCC(NCCCCCCCCn3ccc4ccccc43)CC2)c1`: the IC50 was 21.7 µM in [1] and 750 nM in [2].

Take `Fc1ccccc1CN1CCC(NCCCCCCCCn2ccc3ccccc32)CC1`: the half-inhibitory concentration (IC50) amounted to 29.6 µM in [1] and 930 nM in data set [2].

In data set [3], `c1ccc(CN2CCC(NCCCn3ccc4ccccc43)CC2)cc1` returned an inhibition of less than 60%. Besides, in data set [2], half-maximal inhibition (IC50) was put at 2 nM.

As for `O=C1c2ccccc2C(=O)N1CCCCCCNC1CCN(Cc2ccc(O)cc2)CC1`, the IC50 in [1] was found to be 29.8 µM; in [2], 2320 nM.

Turning to `Fc1ccccc1CN1CCC(NCCCCCCn2ccc3ccccc32)CC1`, the IC50 in data set [1] came out at 42 µM; in data set [2], 3410 nM.

For `c1ccc(CN2CCC(NCCCCCCn3ccc4ccccc43)CC2)cc1`, the results for the IC50 in [1] and in [2] were 0.01 µM and 15300 nM, respectively.

Turning to `O=C1c2ccccc2C(=O)N1CCCNC1CCN(Cc2cccc(Cl)c2)CC1`, the half-maximal inhibitory concentration (IC50) was 68.3 µM in [1] and 4530 nM in [2].

`COc1ccc(CN2CCC(NCCCN3C(=O)c4ccccc4C3=O)CC2)cc1` showed an inhibition in data set [3] of less than 60%. This molecule also yielded an IC50 in data set [2] of 26800 nM.

On to `CC(C)NCC(O)COc1cccc2ccccc12` (stereo not drawn) [PROPRANOLOL], for which the “log Pe” value in data set [14] is listed as -3.5.

As for `COc1ccc(CN2CCC(NCCCCCCCCN3C(=O)c4ccccc4C3=O)CC2)cc1`, the IC50 was 43.3 µM in data set [1] and 5650 nM in data set [2].

`COc1ccc(CN2CCC(NCCCCCCn3ccc4ccccc43)CC2)cc1` displayed an inhibition in data set [3] of less than 60%. In data set [2], it took 520 nM to reach half-maximal inhibition (IC50).

With `O=C1c2ccccc2C(=O)N1CCCCCCCCNC1CCN(Cc2ccccc2)CC1`, the IC50 was 17.7 µM in data set [1] and 1980 nM in data set [2].

`O=C1c2ccccc2C(=O)N1CCCCCNC1CCN(Cc2ccccc2)CC1`: the inhibition in [15] was less than 60%. Besides, half-maximal inhibition in data set [1] (IC50) was put at 69 µM.

`COc1ccc(CN2CCC(NCCCCCCCCn3ccc4ccccc43)CC2)cc1` displayed an inhibition in data set [3] of less than 60%. The molecule further registered an IC50 in data set [2] of 340 nM.

`O=C1c2ccccc2C(=O)N1CCCNC1CCN(Cc2ccccc2F)CC1`: the IC50 worked out at 23.1 µM in data set [1] and 10500 nM in data set [2].

As for `CC(=O)[C@H]1CC[C@H]2[C@@H]3CCC4=CC(=O)CC[C@]4(C)[C@H]3CC[C@]12C` [PROGESTERONE], in data set [14], the “log Pe” value was -5.1.

Turning to `O=C1c2ccccc2C(=O)N1CCCCCCCCNC1CCN(Cc2ccccc2F)CC1`, the IC50 amounted to 43.4 µM in data set [1] and 1870 nM in [2].

In the case of `COc1ccc(CN2CCC(NCCCCCCN3C(=O)c4ccccc4C3=O)CC2)cc1`, in data set [3], the inhibition is less than 60%. For the same molecule, the IC50 in data set [2] stood at 7390 nM.

For the molecule `c1ccc(CN2CCC(NCCCCCCCCn3ccc4ccccc43)CC2)cc1`, the IC50 was determined as 70.1 µM in data set [1] and 1080 nM in data set [2].

In the case of `c1ccc(CN2CCC(NCCCCCn3ccc4ccccc43)CC2)cc1`, the concentration for half-maximal inhibition (IC50) in data set [1] worked out at 0.02 µM; in data set [2], 1830 nM.

As for `O=C1c2ccccc2C(=O)N1CCCCCCNC1CCN(Cc2ccccc2)CC1`, the IC50 in data set [1] is 45.4 µM; in data set [2], 12800 nM.

For `O=C1c2ccccc2C(=O)N1CCCNC1CCN(Cc2ccccc2)CC1`, the figures for the IC50 in [1] and in data set [2] were 8.11 µM and 51800 nM, respectively.

Regarding `O=C1c2ccccc2C(=O)N1CCCCCCNC1CCN(Cc2ccccc2F)CC1`, the figures for the IC50 in [1] and in data set [2] were 85.3 µM and 4000 nM, respectively.

In turn, `Oc1ccc(CN2CCC(NCCCCCCCCn3ccc4ccccc43)CC2)cc1` registered an inhibition in data set [3] of less than 60%. This molecule came in with an IC50 in [2] of 1330 nM.

Consider `Oc1ccc(CN2CCC(NCCCCCCn3ccc4ccccc43)CC2)cc1`, for which the inhibition in data set [3] was less than 60%. The molecule further returned an IC50 in [2] of 1780 nM.

`Clc1cccc(CN2CCC(NCCCCCCn3ccc4ccccc43)CC2)c1`: the half-inhibitory concentration (IC50) in data set [1] is 53.2 µM; in data set [2], 830 nM.
